We go through 5 molecules from patent US20020120242A1, “Absorbent articles with hydrophilic compositions containing botanicals” (priority 2000, published 2002).

Data set [1] deals with EPIDERM skin culture. Briefly: MTT viability assay on EPIDERM skin culture after test composition + insult. Background: Tetrazolium assays rely on reduction of a dye to a coloured formazan, in cell work by metabolically active cells.
Source text: (§1) The MTT dye is taken up by the cells. The reduction of the dye as a result of cellular metabolism can be used to measure the cytotoxicity of the test compositions. In order to confirm viability, inserts of the EPIDERM skin culture that have already been subjected to the test compositions and biological insults are removed from their media and are washed consecutively through immersion in three different beakers of PBS. Fresh PBS is used for each test composition or control being evaluated. The PBS is discarded onto paper towel. The EPIDERM skin culture inserts are then patted onto paper towel and placed into the wells of a 24 well plate containing 300 microliters of pre-warmed media. After all of the EPIDERM skin culture inserts are washed, they are transferred to new 24 well plates containing 300 microliters of the MTT reagent. The MTT reagent is thiazolyl blue having the formula 3-[4,5-Dimethylthiazol-2-yl]-2,5-diphenyltetrzoliumbromide. The plates are incubated for 2 hours in a 37° C., 5% CO2 incubator. After incubation, the EPIDERM skin culture inserts are transferred to 24 well plates and are immersed in 2 milliliters of MTT extraction buffer. The extraction buffer extracts the MTT reagent from the cells. The 24 well plates are parafilmed, covered and placed in ZIPLOCK bags to reduce evaporation of the extraction buffer. The covered plates are rocked overnight in the dark. Following overnight rocking, the liquid in the EPIDERM skin culture inserts is decanted back into the wells. The contents of each well are mixed and a 200 microliter aliquot is then removed from each well and transferred to a 96 well plate. The optical density (OD) of the samples is measured at 570 nm using a spectrophotometer. Five hundred seventy nanometers is the optimal wavelength at which to measure the reduced form of MTT reagent. This reading is subtracted from a background reading at 650 nm to improve data quality. Percent viability of each test composition+insult relative to the control+PBS is recorded as the Mean ODtest composition+insult divided by the Mean ODcontrol+PBS; the quotient then multiplied by 100.
Data set [2] concerns interleukin-1 alpha. Briefly: EPIDERM skin culture irritation test, fecal protease (trypsin-chymotrypsin) insult, IL-1 alpha release. Type of data set: cell-based, human. As for the experimental part: In order to evaluate the efficacy of the compositions of the invention, a human skin culture was selected to model the response of the human epidermis. EPIDERM skin culture is a cornified, air-interfaced human skin culture. EPIDERM skin culture has multiple layers of progressively differentiated keratinocytes resembling human epidermis. EPIDERM EPI-200 skin culture can be purchased from MatTek Corporation of Ashland, Mass. Experiments using EPIDERM skin culture are conducted in six well plates. Typically, five EPIDERM skin culture inserts are added to five of the six wells. Each well contains one milliliter of pre-warmed media that is the same as the EPIDERM skin culture media. The plates are then incubated in a 37° C., 5% CO2 incubator for thirty minutes. After incubation, 15 microliters of test composition or control are applied to the surface of the EPIDERM skin culture after removing any residual media. The well plates, with the test compositions/control applied, are incubated in the 37° C., 5% CO2 incubator for thirty minutes after which the underlying media is removed and replaced with fresh, pre-warmed media. Next, ten microliters of insult solution, either fecal protease or bile acid, are applied to the surface of the EPIDERM skin culture.
The insult solution is prepared by diluting a 10 mg/ml stock solution in phosphate-buffered saline to a working concentration of 250 µg/ml. The base of the stock solution is 50 mM NaOAcetate, pH 5.5 and 0.15 M NaCl stored at −80° C. […] The bile acid insult solution can be prepared by dissolving 65 mg of cholic acid, 62 mg of deoxycholic acid and 31 mg of chenodeoxycholic acid in 10 ml of phosphate-buffered saline. The bile acid insult components can be purchased from Sigma Chemical Co. of St. Louis, Mo. Phosphate-buffered saline, pH 7.4 (hereinafter “PBS”) can be purchased from Life Technologies of Rockville, Md.
For internal studies, infant feces were collected and the amount of total protease and trypsin activities determined for each of the fecal extracts. To prepare the extract, the feces were suspended in water and vigorously vortexed. After vortexing, the samples were held on ice prior to centrifugation at 15,000 times the force of gravity for 20 minutes. The supernatant was filtered through 0.22 micron cellulose acetate filters and stored at −80° C. until use.
After application of the insult solution, the well plates are incubated for six hours in the 37° C., 5% CO2 incubator. At the end of six hours, the well plates are removed from the incubator, the underlying media is removed and stored at −80° C. The response of the EPIDERM skin culture to the test compositions/control and the insult solution is determined by measuring the amount of interleukin-1 alpha (hereinafter “IL-1”). Interleukin-1 alpha can be quantified using an Interleukin-1 alpha Quantikine Kit available from R&D Systems of Minneapolis, Minn. Interleukin-1 alpha measurements are converted to Log10 for each of the treatments and the averages for each treatment are calculated. In order to determine the ability of the test compositions to reduce skin irritation caused by the biological insults, the percent mean reduction of IL-1 is calculated as follows: [formula]
EPIDERM skin culture studies were conducted to measure the reduction in IL-1 response between compositions of the invention and a fecal protease-induced irritation. The studies were conducted using botanicals that are representative of the invention.

Data set [3] has as its target T1, porcine pancreatic trypsin (Sus scrofa, UniProt P00761).
T1 construct: purchased Sigma Chemical of St. Louis, Mo; host or cells: pancreas (porcine)
Briefly: Trypsin inhibition in solution with BAPNA chromogenic substrate. Type of data set: biochemical. The settings on record: for Trypsin Inhibition (IC50): solid form dissolved in PBS. As for the experimental part: More specifically, compositions of the invention were evaluated for their inhibitory effect on porcine pancreatic trypsin in solution. Porcine pancreatic trypsin from Sigma Chemical of St. Louis, Mo. was prepared at a concentration of 1600 ng/ml in 100 mM Tris-HCL pH 8.0-buffer. Twenty-five microliters of the porcine pancreatic trypsin was added to the wells of a NUNC IMMUNO clear 96 well plate. The wells also contained 150 µl of 100 mM Tris-HCL pH 8.0 buffer and 25 µl of a test composition diluted as necessary in PBS. After a fifteen minute incubation at room temperature, the reaction is initiated by adding 50 µl of a 5 mM solution of chromogenic trypsin substrate (N-benzyl-arginine-p-nitroanalide (BAPNA)) to each of the wells. The BAPNA is prepared at 50 mM in neat dimethylsulfoxide and diluted in water to a 5mM working stock solution. In order to measure the progress of the reactions, optical density measurements were taken at 405 nm every 20 seconds (after a two minute delay) for 10 minutes with a THERMOMAX Microplate Reader (Molecular Devices, Sunnyvale, Calif.). […] Below. The IC50 value is based on a dilution of the liquid stock botanical. The actual concentration of the botanical/salt compositions is not known except for those compositions available in solid form. For the solid forms, stock concentrations in PBS can be accurately made up.

For data set [4], the system named is interleukin-1 alpha. Briefly: EPIDERM skin culture irritation test, protease and bile acid insult, IL-1 alpha release. The settings on record: 4 mg/ml in water, 30 minutes pretreatment; protease and bile acid insult 6 hours; sample size six. Type of data set: cell-based, human. As for the experimental part:
An additional set of EPIDERM skin culture experiments was conducted to predict the effect of extracted botanical actives on the irritation response to a protease and bile acid insult. The method for utilizing the EPIDERM skin culture described above was also used for this set of experiments evaluating response to a protease and bile acid insult. The EPIDERM skin culture was pretreated with 15 l of test composition containing 4 mg/ml of epigallocatecin gallate in water for a period of 30 minutes in a 37° C./5% CO2 incubator. The skin culture wells were then treated with 10 µl of a protease and bile acid insult for 6 hours under the same incubation conditions. Phosphate-buffered saline solution of pH 7.4 was used as a negative control. After 6 hours, the underlying media is removed and stored at -80° C. The amount of IL-1 from the media was quantified using an Interleukin-1 alpha Quantikine Kit available from R&D Systems of Minneapolis, Minn. The protease and bile acid insult was prepared by mixing equal volumes of a bile acid insult with a protease insult. The bile acid insult included 13 mg/ml cholic acid (sodium salt), 12.4 mg/ml deoxycholic acid (sodium salt) and 6.2 mg/ml chenodeoxycholic acid (sodium salt) prepared in pH 7.4 phosphate-buffered saline. […]

Data set [5] has as its system EPIDERM skin culture. The settings on record: human, 4 mg/ml.
Source text: as §1
The mark [6] stands for this setting: 4 mg/ml in PBS, trypsin-chymotrypsin insult (Table 3).

“And” between values parts separate entries of the source, which are not always exact repeats. Identical values can stand only once. Like-named read-outs stand apart in the source and are kept apart here. Marks after values point to notes of the source that are not given here. Some results are limits rather than exact numbers.

T1 sequence (P00761 9-231): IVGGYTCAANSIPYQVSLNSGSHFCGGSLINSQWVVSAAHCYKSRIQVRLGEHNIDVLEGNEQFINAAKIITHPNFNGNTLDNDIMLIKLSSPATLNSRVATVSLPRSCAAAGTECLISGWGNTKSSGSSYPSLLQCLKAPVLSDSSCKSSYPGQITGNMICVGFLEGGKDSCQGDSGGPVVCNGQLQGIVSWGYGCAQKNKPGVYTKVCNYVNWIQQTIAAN

On to `O=C(O[C@@H]1Cc2c(O)cc(O)cc2O[C@@H]1c1ccc(O)c(O)c1)c1cc(O)c(O)c(O)c1` [Epicatechin gallate], for which the “Viability (percentage)” value with EPIDERM skin culture [1] (setting [6]) is 143%. Also, the “Mean Reduction of Interleukin-1 Alpha (percentage)” value (“Mean Reduction … (percentage)” below) in the data set with interleukin-1 alpha [2] (setting [6]) is 62% (5)*.
On to `Oc1cc(O)c2c(c1)O[C@H](c1ccc(O)c(O)c1)[C@H](O)C2` [Epicatechin], for which the “Viability (percentage)” value in the data set on EPIDERM skin culture [1] (setting [6]) came out at 111%. In the data set with interleukin-1 alpha [2] (setting [6]), the “Mean Reduction … (percentage)” value is reported as 24% (5).
On to `O=C(O[C@@H]1Cc2c(O)cc(O)cc2O[C@@H]1c1cc(O)c(O)c(O)c1)c1cc(O)c(O)c(O)c1` [Epigallocatechin gallate], for which the “reduction of trypsin activity in solution (in words)” value in data set [3] (conclusion from Table 5) was “effective at reducing trypsin activity in solution”. Besides, the “Trypsin Inhibition (IC50)” value in data set [3] is recorded as 0.00002% (w/v). Besides, the “Viability (percentage)” value with EPIDERM skin culture [1] (setting [6]) was 126%; in the data set on EPIDERM skin culture [1] (0.4% (w/v) in PBS + protease insult, relative to control + PBS), 103% and 101% and 112%. For the same molecule, the “Mean Reduction … (percentage)” value in the data set on interleukin-1 alpha [2] (0.4% (w/v) in PBS, fecal protease insult 6 hours, one value per set of experiments) is 77% and 71% and 50%. In addition, the IL-1 reduction in the data set on interleukin-1 alpha [4] came out at 28%.
On to `Oc1cc(O)c2c(c1)O[C@H](c1cc(O)c(O)c(O)c1)[C@H](O)C2` [Epigallocatechin], for which the “Viability (percentage)” value in the data set with EPIDERM skin culture [5] was found to be 125%. Further, the “Mean Reduction … (percentage)” value in the data set with interleukin-1 alpha [2] (setting [6]) is 30% (5).
As for `[Cl-].[Cl-].[Sr+2]` [Strontium Chloride], the “Trypsin Inhibition (IC50)” value in data set [3] is reported as >0.5% (w/v). For the same molecule, the “Mean Reduction … (percentage)” value in the data set with interleukin-1 alpha [2] (1% in PBS, fecal protease insult 6 hours, one value per set of experiments) is on record as 0% (10); with interleukin-1 alpha [2] (10% in PBS, fecal protease insult 6 hours, one value per set of experiments), 15% (10).
